One series relates to rat jejunal sac. As to the kind of experiment: Permeation of everted rat jejunal sac by iron complexes. The class given is in vitro ADME. As to conditions: for Relative iron uptake, 15 minutes / Relative iron uptake, 60 minutes: relative to ferric chloride as 1. From the text:
Rats (male Sprague Dawley, 60 g) were killed and the jejunum removed, everted and cut into three segments (4 cm length). […] The contents of the sac were counted for ^59Fe and measured spectrophotometrically. […] The procedure described above was used to compare the uptake of iron from buffer containing differing molar proportions of maltol:iron.

Series [1] can be described thus: Affinity / stability constant of ligand for iron(III). Format: physicochemical. The text has this:
(§1) In order to solubilise iron(III) hydroxide, log Ksol must be greater than 0. The value of Ksol for maltol is 0.8 and this is also sufficiently large to prevent appreciable competition from phytate, phosphate, thiols and other potential ligands likely to occur in the intestinal lumen.

Series [2] is described as follows: Ksol (ability to solubilise iron(III) hydroxide). Format: physicochemical.
Description: as §1

Series [3] in a line: Partition coefficient Kpart n-octanol / Tris hydrochloride. Format: physicochemical. The conditions noted are these: pH 7.4. As for the experimental part: An indication of the properties of a compound in this respect is provided by the value of the partition coefficient (Kpart) obtained on partition between n-octanol and Tris hydrochloride (20 mM, pH 7.4; Tris representing 2-amino-2-hydroxymethylpropane 1,3-diol) at 20° C. and expressed as the ratio (concentration of compound in organic phase)/(concentration of compound in aqueous phase).
The partition coefficient Kpart (concentration in n-octanol/concentration in aqueous phase) between n-octanol and Tris hydrochloride (20 mM, pH 7.4) of maltol and of its 3:1 iron complex is measured at 10^−4 M by spectrophotometry. Acid washed glassware is used throughout and, following mixing for 1 minute, the aqueous/n-octanol mixture is […] at 1000 g for 30 seconds. The two resulting phases are separated for a concentration determination by spectrophotometry on each. For maltol, the range 220-340 nm is used for the concentration determination whilst for the complex the range 340-640 nm is used.

In another series the target is haemoglobin (Homo sapiens, UniProt P68871+P69905). As to the kind of experiment: Binding of 59Fe-labelled complex to haemoglobin (gel permeation column). As to conditions: 59Fe-labelled complex 1 mM, NaCl 130 mM, pH 7.4. The protocol:
(§2) The ability of the iron complex of maltol to bind to haemoglobin is investigated by studying the elution profile of a ^59Fe label when a mixture of haemoglobin and the ^59Fe-labeled complex (at 1 mM concentration) in NaCl (130 mM) buffered to pH 7.4 by Tris hydrochloride is applied to a PH-10 column (Sephadex G-10 gel permeation column—Pharmacia).

Series [4] concerns the target bovine serum albmen (BSA) (Bos taurus, UniProt P02769). The experiment in a line: Binding of complex to BSA (gel permeation column). The conditions noted are these: as haemoglobin procedure, pH 7.4. The protocol:
as §2
The ability of the iron complex of maltol to bind to bovine serum albmen (BSA) is investigated through a similar procedure in which the complex is applied to a column with BSA rather than haemoglobin.

In the next series the test system is human erythrocytes. As to the kind of experiment: Permeation of iron complexes into human erythrocytes (59Fe distribution ratio). The class given is cell-based. As to conditions: 37° C.; for Distribution ratio (concentration in erythrocytes/concentration in medium): 1 hour, pH 7.4.
A short description of series [5]: In vivo 59Fe uptake after administration into the duodenum of the rat. The conditions noted are these: 100 μg Fe into duodenum; for introduction of iron via the rat intestine (59Fe in organs), comparison: 1-6 hours, FIGS. 1-4. The protocol: Groups of rats (300-350 g) were anaesthetised with nembutal (0.25 ml) and then with ether. […] The abdominal well was then closed with a suture. […] In the case of the data for blood and sternum (bone marrow) the counts given are cpm/ml and cpm/g respectively, whilst in all other cases they are the total cpm counts.

Series [6] can be described thus: In vivo 59Fe blood kinetics and tissue distribution in the cat, intravenous. The conditions noted are these: for Net ^59Fe content (cpm/g) / Net total ^59Fe content (cpm): 2 μCi given, figures adjusted to 2.2×10^6 cpm. As for the experimental part:
Body temperature was monitored with a rectal thermometer.
The iron maltol complex (100 μg Fe) alone (3:1 molar ratio of maltol:iron) and together with a large excess of maltol (40:1 molar ratio of maltol:iron) was injected intravenously in separate experiments and 0.25 ml samples of blood were taken in intervals. The apparent volume of distribution of the compound was calculated by extrapolation of the log-linear blood concentration curve to zero.
The amount of ^59Fe administration in this experiment was 4 μCi or 2.2×10^6 cpm.

Series [7] is described as follows: Iron take-up in human subjects by whole body counting. Format: in vivo. As to conditions: for level of take-up of iron by whole body counting: normal subject. As for the experimental part: Capsules containing 3:1 iron(III) maltol, […] were prepared according to the procedure of Example 7^(1) with the modification that at 3:1 molar ratio of maltol:iron was used (no free maltol therefore being present in the capsules) and that a proportion of the ferric chloride used in the preparation of the iron maltol was radiolabelled as ^59Fe. The capsules each contained 10 mg of iron, this amount being labelled with 1 microcurie of ^59Fe, and were subjected to a single coating procedure.
The test involved two normal subjects, i.e. not suffering from iron deficiency, one of whom took a 10 mg dose of iron (one capsule) and the other whom took a 20 mg does of iron (two capsules). The capsule or capsules were taken after fasting overnight and fasting was then continued for a further 2 hours. The take-up of iron by the subjects was followed by means of whole body counting, using a calibrated body counter, reading being taken 4 to 8 hours after ingestion of the capsules to establish a base level and then after 7 and 14 days. Excretion of iron by the subjects was followed through the counting, in a large volume counter calibrated for iron, of daily urine samples over 3 days and daily stool samples over 10 days.

For series [8] the following is noted: in vivo.
Description: (§3) In each animal the trachea was cannulated to maintain a clear airway and to allow positive pressure artificial respiration if necessary. The left femoral vien was cannulated for the intravenous administration of drugs and physiological saline solution. Arterial blood pressure was monitored by a Washington pressure transducer through a cannula inserted into the femoral artery of the right hind leg. Arterial blood samples were taken at appropriate intervals from a short cannula inserted into an external carotid artery. Body temperature was monitored with a rectal thermometer. Each animal was given heparin (1000 iu/kg) as anticoagulant and additional small amounts of pentobarbitone sodium if needed to maintain a satisfactory level of anaesthesia.
(§4) If those animals where the iron compounds were to be administered into the duodenum, a mid-line incision was made in the abdomen to reveal the intestines. A cannula was then inserted through a small cut such that its tip rested approximately 5 cm below the opening of the bile duct. The cannula was then sutured in place and the abdominal wall closed with stitches.
(§5) The iron maltol complex (100 μg Fe) was also administered to the duodenum of the cat in the presence of a 40 fold excess of maltol followed by 5 ml of 150 ml tris hydrochloride buffer (pH 7.4).
Series [9] can be described thus: In vivo 59Fe blood level and tissue distribution in the cat, per duodenum. As to conditions: 2.65×10^6 cpm administered.
Description: as §3, §4, §5

What is called logD is lipophilicity at a set pH, counting ionised and neutral species.

bovine serum albmen (BSA), sequence (P02769 25-607): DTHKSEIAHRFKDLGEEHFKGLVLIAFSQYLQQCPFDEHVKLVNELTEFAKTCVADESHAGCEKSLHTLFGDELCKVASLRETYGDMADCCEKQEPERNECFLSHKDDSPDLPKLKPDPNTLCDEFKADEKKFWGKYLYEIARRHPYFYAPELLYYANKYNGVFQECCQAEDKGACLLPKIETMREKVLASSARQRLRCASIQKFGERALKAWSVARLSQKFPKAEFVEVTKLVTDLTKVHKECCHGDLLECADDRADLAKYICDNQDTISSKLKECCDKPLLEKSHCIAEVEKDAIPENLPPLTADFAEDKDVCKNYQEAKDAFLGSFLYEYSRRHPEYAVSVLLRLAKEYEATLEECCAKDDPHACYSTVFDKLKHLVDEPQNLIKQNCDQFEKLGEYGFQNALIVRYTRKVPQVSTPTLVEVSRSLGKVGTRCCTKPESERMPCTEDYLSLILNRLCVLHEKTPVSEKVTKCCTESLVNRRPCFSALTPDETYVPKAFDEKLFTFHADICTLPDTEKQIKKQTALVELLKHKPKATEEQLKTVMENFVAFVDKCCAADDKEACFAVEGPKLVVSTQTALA
haemoglobin, sequence (P69905 2-142 limits assumed): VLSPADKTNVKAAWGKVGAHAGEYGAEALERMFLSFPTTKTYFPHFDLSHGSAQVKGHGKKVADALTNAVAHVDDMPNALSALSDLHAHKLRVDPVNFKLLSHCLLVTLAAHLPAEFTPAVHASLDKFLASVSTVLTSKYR
haemoglobin, sequence (P68871 2-147 limits assumed): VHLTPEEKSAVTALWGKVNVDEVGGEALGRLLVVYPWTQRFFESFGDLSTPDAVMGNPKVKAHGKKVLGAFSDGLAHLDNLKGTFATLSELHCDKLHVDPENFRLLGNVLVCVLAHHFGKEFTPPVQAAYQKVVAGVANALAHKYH
Description for human erythrocytes: Following this period of incubation an aliquot of the erythrocyte/medium mixture was placed above a layer of silicone oil (ρ=1.06) and the erythrocytes separated by centrifugation through the oil. The ^59Fe levels associated with the erythrocytes and the incubation medium were then counted and presented as a distribution ratio (concentration in erythrocytes/concentration in medium).

`[Cl][Fe]([Cl])[Cl]` [FeCl3]: in the series on rat jejunal sac, the “Relative iron uptake, 15 minutes” value came to 1 and the “Relative iron uptake, 60 minutes” value came out at 1.
On to `Cc1occc(=O)c1O` [maltol, 3-hydroxy-2-methyl-4-pyrone], for which the “log β3 (affinity for iron)” value in [1] (ligand maltol, iron) was found to be 30. This molecule yielded a Ksol in [2] (ligand, log Ksol must be greater than 0 to solubilise iron(III) hydroxide) of 0.8. The molecule also showed a logD in series [3] of -0.18.
In series [1] (3:1 complex), `Cc1occc(=O)c1[O-].Cc1occc(=O)c1[O-].Cc1occc(=O)c1[O-].[Fe+3]` [Fe^III (maltol)3] showed a thermodynamic stability constant of 30. In addition, the “binding of the complex to haemoglobin” value on haemoglobin was “no evidence if found for binding”. For the same molecule, the “ability to bind to BSA” value in [4] is reported as “little ability to bind to BSA”. Further, the “Distribution ratio (concentration in erythrocytes/concentration in medium)” value in the series with human erythrocytes (3 mM) is 1.60. Also, the “time for uptake to reach equilibrium” value with human erythrocytes (erythrocytes) is recorded as “about 15 minutes”. Besides, in the series with rat jejunal sac (0.5 to 10 mM, uptake increased linearly), the “concentration dependence of uptake” value is “does not show saturation kinetics”. The “Iron uptake (n mole)” value with rat jejunal sac (iron transferred into serosal contents of sac, basal uptake subtracted, by maltol/iron molar ratio) was 30.0 n mole. In the series with rat jejunal sac (jejunal sac, up to 90 minutes), the “time course of uptake” value is reported as “linear for a period 90 minutes”. Besides, in the series with rat jejunal sac, the “Relative iron uptake, 15 minutes” value is 40 and the “Relative iron uptake, 60 minutes” value came out at 5.8. The “introduction of iron via the rat intestine (59Fe in organs), comparison” value (from here on “introduction”) in series [5] (listed as maltol complex) is given as “more efficient than iron(III) EDTA”. The “introduction” value in series [5] (listed as neutral 3:1 maltol:iron(III) complex) is “markedly superior to iron(II) sulphate”. Further, in [6] (in vivo, iv), the “59Fe directed to the bone marrow (bulk, inferred)” value is “approximately 90%”; the “dose located in combined tissue of heart, liver and spleen” value is “approximately 10%”; the “dose located in the urine” value is reported as “less than 0.2%”. The “loss of iron in the urine” value in [7] (daily urine samples over 3 days) was “essentially zero loss of iron”. Moreover, the “level of take-up of iron by whole body counting” value (shortened to “level of take-up of iron”) in series [7] (10 mg dose of iron, oral capsule, 14 day figure) is recorded as 19%. Further, the “level of take-up of iron” value in series [7] (20 mg dose of iron, oral capsules, 14 day figure) amounted to 11%.
Take `O=C([O-])[C@H](O)[C@@H](O)[C@H](O)[C@H](O)CO.O=C([O-])[C@H](O)[C@@H](O)[C@H](O)[C@H](O)CO.[Fe+2]` [Fe^II gluconate]: the “Distribution ratio (concentration in erythrocytes/concentration in medium)” value in the series with human erythrocytes (1 mM) is on record as 0.08. In addition, in the series with rat jejunal sac, the “Relative iron uptake, 15 minutes” value is 1.6 and the “Relative iron uptake, 60 minutes” value worked out at 0.8. Besides, the “introduction” value in series [5] is recorded as “more effective than the sulphate or the EDTA complex”.
As to Fe^III ascorbate, the “Distribution ratio (concentration in erythrocytes/concentration in medium)” value in the series with human erythrocytes (1 mM) is on record as 0.12. In addition, in the series on rat jejunal sac, the “Relative iron uptake, 15 minutes” value was determined as 0.4 and the “Relative iron uptake, 60 minutes” value was found to be 0.8.
Regarding `O=C([O-])CN(CCN(CC(=O)[O-])CC(=O)O)CC(=O)[O-].[Fe+3]` [Fe^III EDTA], the “levels of 59Fe in the intestine wall and blood” value in [5] (FIG. 3) is on record as “extremely low”. The “Net ^59Fe content (cpm/g)” value is reported as 209 cpm/g in [6] (Heart, i.v.); 1,134 cpm/g in series [6] (Kidney, i.v.); 261 cpm/g in [6] (Liver, i.v.); 95 cpm/g in series [6] (Skeletal muscle, i.v.); 162 cpm/g in series [6] (Spleen, i.v.); 1,164 cpm/g in series [6] (Sternum (bone marrow), i.v.). The “Net ^59Fe content (cpm/g)” value is listed as 62,156 cpm/g in [6] (Urine (19 ml, 2 ml sample), i.v.); 188 cpm/g in series [9] (Heart); 1,762 cpm/g in series [9] (Kidney); 499 cpm/g in [9] (Liver); 117 cpm/g in series [9] (Skeletal muscle); 200 cpm/g in series [9] (Spleen). The “Net ^59Fe content (cpm/g)” value is on record as 917 cpm/g in series [9] (Sternum (bone marrow)) and 36,306 cpm/g in series [9] (Urine (5 ml sample)). Moreover, the “Net total ^59Fe content (cpm)” value in series [6] (Heart, i.v.) was 3,248 cpm; in series [6] (Kidney, i.v.), 21,770 cpm; in series [6] (Liver, i.v.), 19,600 cpm; in [6] (Spleen, i.v.) it was 1,814 cpm; in series [6] (Urine (19 ml), i.v.), 1,180,900 cpm; in series [9] (Heart), 2,878 cpm. The “Net total ^59Fe content (cpm)” value is on record as 19,913 cpm in [9] (Kidney), 29,574 cpm in series [9] (Liver), 880 cpm in series [9] (Spleen) and 544,596 cpm in series [9] (Urine (15 ml)). In series [6] (i.v.), the “rate constant of the elimination from the blood, linear phase of the regression” value came to 0.023 min⁻¹. The “dose located in the urine” value in series [6] (i.v., end of experiment) is “over 50%”. Besides, the “plasma levels of radioactivity” value in series [8] is given as “hardly exceeded the background level”.
On to Fe^III citrate, for which the “Distribution ratio (concentration in erythrocytes/concentration in medium)” value in the series with human erythrocytes (1 mM) was found to be 0.05. For the same molecule, in the series with rat jejunal sac, the “Relative iron uptake, 15 minutes” value is 2.0 and the “Relative iron uptake, 60 minutes” value amounted to 1.8.
In the case of “apotransferrin: iron-free transferrin, reference for log Ksol”, the “log Ksol” value in series [2] was 6.0.
For the molecule `O=C([O-])CCC(=O)[O-].[Fe+2]` [Fe^II succinate], in the series on rat jejunal sac, the “Relative iron uptake, 15 minutes” value was 2.0 and the “Relative iron uptake, 60 minutes” value turned out to be 1.0.
On to `O=C([O-])/C=C/C(=O)[O-].[Fe+2]` [Fe^II fumarate], for which, in the series with rat jejunal sac, the “Relative iron uptake, 15 minutes” value came out at 4.0 and the “Relative iron uptake, 60 minutes” value was 1.8.
Regarding `O=S(=O)([O-])[O-].[Fe+2]` [Fe^II sulphate], in the series on rat jejunal sac, the “Relative iron uptake, 15 minutes” value is recorded as 2.4 and the “Relative iron uptake, 60 minutes” value amounted to 1.4. Further, the “level of take-up of iron” value in series [7] (10 mg dose, at 7 days) came to 13%. Further, the “level of take-up of iron” value in [7] (20 mg dose, at 7 days) is on record as 6%.

(Values after USRE37534E1, “Pharmaceutical compositions” (BTG International Limited, priority 1982, dated 2002).)
